Earlier results as cited in patent US9549940B2, “Sustained-release formulations of topiramate” (Supernus Pharmaceuticals, Inc., priority 2006, dated 2017).

Legend:
[1] = room temperature
[2] = oral administration of an immediate release dosage form

## CC1(C)OC2[C@@H](CO[C@@]3(COS(N)(=O)=O)OC(C)(C)O[C@@H]23)O1 (stereo partly drawn) [topiramate, 2,3:4,5-Di-O-isopropylidene-beta-D-fructopyranose sulfamate]
[1]
  solubility of topiramate in water: about 9.8 mg/ml
[2]
  time of plasma drug concentration peak: approximately 2 hours
